Laboratory results as given in patent US10676468B2, “N-(3-heteroarylaryl)-4-arylarylcarboxamides and analogs as hedgehog pathway inhibitors and use thereof” (IMPACT Therapeutics, Inc., priority 2012, dated 2020).

What was measured:
Type in all cases: cell-based, mouse
[1] = tested on: Hedgehog Signaling Pathway; assay: SAG-induced differentiation of C3H10T1/2 cells into osteoblastic cells, intracellular alkaline phosphatase activity; details: Mus musculus, C3H 10T1/2, 120 h, 1 μM SAG, 5 days, alkaline phosphatase activity (OD405), read-out: IC50 values of compounds that inhibit Hh pathway
How it was run: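 Mouse C3H10T1/2 cells were induced with SAG and exposed to compound (10 μM to 1 nM) for 5 days at 37 °C. Cells were lysed in 0.2% Triton, and alkaline phosphatase activity was read as OD405 over 30 min at 37 °C in pH 9.8 substrate buffer. IC50 came from a non-linear fit of background-subtracted OD405 against log concentration.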

[2] = tested on: Hedgehog Signaling Pathway; assay: SHH-induced differentiation of C3H10T1/2 cells into osteoblastic cells, intracellular alkaline phosphatase activity; details: Mus musculus, C3H 10T1/2, 120 h, 10 nM SHH-N, 5 days, alkaline phosphatase activity (OD405), read-out: IC50 values of compounds that inhibit Hh pathway
How it was run: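 Hedgehog pathway inhibition was taken as loss of SHH-driven osteoblastic differentiation. Test compound (10 nM–10 μM) plus SHH-N (10 nM) was applied to C3H10T1/2 cells for 5 days, then lysate phosphatase turnover was measured as the 30-min OD405 change at 37 °C. IC50 was fitted from activity versus log dose.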

[3] = tested on: Hedgehog Signaling Pathway; assay: Gli-Luc reporter gene cell assay in C3H10T1/2/Gli-Luc cells stimulated with Shh; details: Mus musculus, C3H 10T1/2, 24 h, 30 nM Shh, luciferase activity (RLU), read-out: IC50 values of compounds that inhibit Hh pathway
How it was run: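 IC50 from nonlinear fit of luciferase RLU versus log compound concentration. Stably transfected C3H10T1/2/Gli-Luc cells received a 7-point compound series alongside Shh (30 nM in the added medium) for 24 h at 37 °C in DMEM/10% FBS, then were lysed for luciferase readout.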

SMILES | IC50 [1] | IC50 [2] | IC50 [3]
C[C@@H]1CN(c2ccc(C(=O)Nc3cnc(Cl)c(-c4nc5ccccc5[nH]4)c3)cn2)C[C@H](C)N1C [Example 86, N-(5-(1H-benzo[d]imidazol-2-yl)-6-chloropyridin-3-yl)-6-((3S,5R)-3,4,5-trimethylpiperazin-1-yl)nicotinamide] | 40 nM | 1.7 nM | 0.94 nM
C[C@@H]1CN(c2ccc(C(=O)Nc3ccc(Cl)c(-c4nc5ccccc5[nH]4)c3)cn2)C[C@H](C)O1 [Example 35, N-(3-(1H-benzo[d]imidazol-2-yl)-4-chlorophenyl)-6-((2S,6R)-2,6-dimethylmorpholino)nicotinamide] | 56 nM | 10 nM | 7.8 nM
CCN1[C@H](C)CN(c2ccc(C(=O)Nc3ccc(Cl)c(-c4nc5ccccc5[nH]4)c3)c(Cl)c2)C[C@@H]1C [Example 124, N-(3-(1H-benzo[d]imidazol-2-yl)-4-chlorophenyl)-2-chloro-4-((3S,5R)-4-ethyl-3,5-dimethylpiperazin-1-yl)benzamide] | 38 nM | 0.49 nM | 0.8 nM
Cc1ccc(-c2cnc(-c3cc(NC(=O)c4ccc(-c5ccc(C(F)(F)F)cc5)cc4C)ccc3Cl)[nH]2)cc1 [Example 77, N-(3-(5-p-tolyl-1H-imidazol-2-yl)-4-chlorophenyl)-3-methyl-4′-(trifluoromethyl)biphenyl-4-carboxamide] | 139 nM | 1.9 nM | 7.1 nM
C[C@@H]1CN(c2ccc(C(=O)Nc3ccc(Cl)c(-c4ncc(-c5ccco5)[nH]4)c3)c(Cl)c2)C[C@H](C)N1C [Example 144, N-(3-(5-(furan-2-yl)-1H-imidazol-2-yl)-4-chlorophenyl)-2-chloro-4-((3S,5R)-3,4,5-trimethylpiperazin-1-yl)benzamide] | 17 nM | 0.82 nM | 0.15 nM
CS(=O)(=O)c1ccc(C(=O)Nc2ccc(Cl)c(-c3ccccn3)c2)c(Cl)c1 [GDC-0449, reference compound] | 108 nM | 38 nM | 43 nM
O=C(Nc1ccc(Cl)c(-c2nc3ccccc3[nH]2)c1)c1ccc(-c2ccc(C(F)(F)F)cc2)cc1Cl [Example 18, N-(3-(1H-benzo[d]imidazol-2-yl)-4-chlorophenyl)-3-chloro-4′-(trifluoromethyl)biphenyl-4-carboxamide] | 60 nM | 3.7 nM | 8.2 nM
Cc1cc(N2C[C@@H](C)N(C)[C@@H](C)C2)ccc1C(=O)Nc1ccc(Cl)c(-c2nc3ccncc3[nH]2)c1 [Example 197, N-(3-(3H-imidazo[4,5-c]pyridin-2-yl)-4-chlorophenyl)-2-methyl-4-((3S,5R)-3,4,5-trimethylpiperazin-1-yl)benzamide] | 306 nM | 115 nM | 9.5 nM
Cc1cc(C(=O)Nc2ccc(Cl)c(-c3nc4ccccc4[nH]3)c2)ccc1-c1ccc(C(F)(F)F)cc1 [Example 14, N-(3-(1H-benzo[d]imidazol-2-yl)-4-chlorophenyl)-2-methyl-4′-(trifluoromethyl)biphenyl-4-carboxamide] | 80 nM | 5.5 nM | 9.5 nM
Cc1cc(N2C[C@@H](C)N(C)[C@@H](C)C2)ccc1C(=O)Nc1ccc(Cl)c(-c2ncc[nH]2)c1 [Example 166, N-(3-(1H-imidazol-2-yl)-4-chlorophenyl)-2-methyl-4-((3S,5R)-3,4,5-trimethylpiperazin-1-yl)benzamide] | 347 nM | 47 nM | 11 nM
Cc1cc(N2C[C@@H](C)N(C)[C@@H](C)C2)ccc1C(=O)Nc1ccc(Cl)c(-c2ncc(-c3cccs3)[nH]2)c1 [Example 81, N-(3-(5-(thiophen-2-yl)-1H-imidazol-2-yl)-4-chlorophenyl)-2-methyl-4-((3S,5R)-3,4,5-trimethylpiperazin-1-yl)benzamide] | 6.4 nM | 0.16 nM | 0.15 nM
